Data reported in patent EP0315782A2, “Method for the production of proteins” (priority 1987, dated 1989).
Read-outs that look alike come from different tables or passages of the source.

Legend:
Type in all cases: cell-based, chinesische Hamster
CHO-Zellen [1] = assay: t-PA production in transformed CHO cells, medium with 7.5% FKS, supernatant, direct chromogenic assay (DCA); settings: for Stimulierung der t-PA-Produktion: after 24 h
From the text: (§1) Der Vektor für die t-PA-Produktion wurde in einem Subklon, CHO-K1-DUX B11, integriert (Urlaub et al., Proceedings of the National Academy of Science, USA, 77: 4216-4220, 1980). Diese Zell-Linie, eine Dihydrofolat Reduktase negative Mutante (DHFR-), ist für eine DHFR-abhängige Selektion der transfizierten Zellklone geeignet. Der Vektor für die humane c-DNA kann ein bekannter Plasmid-Vektor pBR-322 oder deren Abkömmling von Escherichia coli sein. Die Promotorregion für das in Frage kommende Gen und für das DHFR-Gen stammt aus SV 40 und die Terminationsregion für beide Gene von einem Hepatitis B-Oberflächenantigen. In den Beispielen wurden CHO-K1-DUX B11-Zellen, die durch die Plasmide pETPER oder pEPEFR transformiert sind, verwendet (siehe EP-A 0117059).
(§2) Die Zellkulturen werden bei 37°C in einem Hereaus-Brutschrank inkubiert und mit einem Kohlendioxid-Luftgemisch von 7,5% CO₂ in einer relativen Luftfeuchtigkeit von 100% belüftet. Je nach Verfahrensansatz werden unterschiedliche Kulturgefäße benutzt: Spinnergefäße für 100-1000 ml Medium, Roux-Schalen (Nunc) 175 cm² (70-100 ml Medium), 75 cm² (30-50 ml Medium), 25 cm² (7-10 ml Medium) und Mehrfachkulturschalen von Costar mit 2 cm² für 1 ml Kulturen. Für die Stammhaltung werden die Zellen in einer Dichte von 0,2-0,3 x 10⁶ Zellen/ml eingesetzt und alle 2-3 Tage subkloniert.
(§3) Die Protein-Produktion stimulierenden Substanzen können zu den verschiedenen Zeitpunkten jeweils in einer 1:100 Verdünnung zugegeben werden, d.h. sie wurden zuerst in Medium gelöst oder, wenn sie schwerlöslich sind, erst in Äthylalkohol gelöst und danach in Medium zugesetzt und dann das diese Substanz enthaltende Medium dem zellenthaltenden Medium im Verhältnis 1:100 v/v zugegeben.
(§4) In den folgenden Beispielen wurden, um die Stimulierung der t-PA-Synthese hervorzurufen, Zellen einer exponentiell wachsenden Kultur entnommen und in Plastikröhrchen (Falcon) 10 Min. bei 1000 x g in einer Beckmann T 3-6 Zentrifuge abzentrifugiert. Nach Dekantieren des Überstandes wurde das Zellpellet mit frischem Medium resuspendiert.
Für die Produktion von t-PA in serumhaltigem Medium wurde als frisches Medium F12/DMEM + 7,5% FKS + Gentamycin verwendet. Die resultierende Suspension kann in 2 cm² 24 Wells-Platten bei einer Zelldichte von 0,2-0,3 x 10⁶ Zellen/ml angesetzt werden.
(§5) Aliquots von Zellüberständen und Zellextrakten wurden zu verschiedenen Zeitpunkten abgenommen bzw. hergestellt. Die Messung der Proben erfolgte entweder sofort oder nach Aufbewahrung bei -20°C mit folgenden Methoden:
Von dem synthetischen Peptidsubstrat S-2288 (D-H-Ile-Pro-Arg-p-Nitroanilin) der Firma Kabi Diagnostica wird durch das t-PA p-Nitroanilin als Reaktionsprodukt gebildet. Die Aktivität von t-PA ist zur Bildung von p-Nitroanilin proportional, die bei […], 37°C, gemessen wird.
Die spektrophotometrische Bestimmung der Enzymkinetik wurde mit einem ACP-5010-Analysengerät der Firma Eppendorf automatisch durchgeführt.
Die Aktivität des Enzyms wurde anhand dieses vorgegebenen Standards berechnet. Eine t-PA-Standardreihe von 1-15 µg/ml wurde mit einem Laborstandard hergestellt, der zu 72% aus 1-kettigem Material besteht.
Die Substratlösung (100 mM Tris/106 mM NaCl) wurde in einer Konzentration von 50 mM eingesetzt.

CHO-Zellen [2] = assay: t-PA production in transformed CHO cells, medium and determination method not stated; settings: 10 mM; for activation at 10000 µM: CHO
From the text: as §1, §2, §3, §4
Aliquots von Zellüberständen und Zellextrakten wurden zu verschiedenen Zeitpunkten abgenommen bzw. hergestellt. Die Messung der Proben erfolgte entweder sofort oder nach Aufbewahrung bei -20°C mit folgenden Methoden: […]

CHO-Zellen [3] = assay: t-PA production in transformed CHO cells, serum-free medium (DCA or determination method not given)
From the text: Diese Zell-Linie, eine Dihydrofolat Reduktase negative Mutante (DHFR-), ist für eine DHFR-abhängige Selektion der transfizierten Zellklone geeignet. […] Die Promotorregion für das in Frage kommende Gen und für das DHFR-Gen stammt aus SV 40 und die Terminationsregion für beide Gene von einem Hepatitis B-Oberflächenantigen.
Im folgenden Beispiel wird ein nachseziertes DMEM/Ham's F 12 Medium (1:1) (Gibco) als serumfreies Medium verwendet. Als Zusatz wird fötales Kälberserum (FKS) in einer Konzentration von 7,5% oder 1-2% verwendet.
as §2, §3, §4
Für die Produktion von t-PA in serumfreiem Medium wurden die Zellen zuvor 3-4 Tage in einem Medium von 1-2% FKS adaptiert, wieder abzentrifugiert und das Zellpellet in serumfreiem Medium resuspendiert und anschließend in 2 cm² 24 Wells-Platten in einer Zelldichte von 0,4-0,5 x 10⁶ Zellen/ml überführt.
as §5
Die Aktivität des Enzyms wurde anhand dieses vorgegebenen Standards berechnet.

[4] = Table 3, mean ± SE, n = 3-24, production runs of 3 to 4 days, acids added day 0 to 3, 1 ml supernatant vs control (0%), 7,5% FKS
[5] = Table 3, single sample, 1 ml supernatant vs control (0%), 7,5% FKS, its concentration, addition and sampling day in brackets in Tables 3/3A
[6] = Table 10, 7,5% FKS, bracketed value = concentration of the single sample
[7] = Table 10, mean ± SE, runs of 4 days, added day 1, sampled days 2-4, 7,5% FKS, 1 ml supernatant vs control (0%)
[8] = Table 10, single sample (added day 1, sampled day 4), 7,5% FKS, 1 ml supernatant vs control (0%)
[9] = Table 3, stimulation of t-PA synthesis, medium with 7,5% FKS, bracketed value = concentration of the single (maximum) sample
[10] = Table 4, Applikationstag 0, after 48 h growth, 7,5% FKS, 1 mM or 5 mM, 1 ml supernatant vs control (0%), mean ± SE
[11] = Table 4, Applikationstag 1, after 48 h growth, 7,5% FKS, 1 mM or 5 mM, 1 ml supernatant vs control (0%), mean ± SE
[12] = Table 7, mean ± SE, n = 4-9, runs of 4 days, acids added day 0, 7,5% FKS, 1 ml supernatant vs control (0%)
[13] = Table 7, single sample (added day 0, sampled day 2), 7,5% FKS, 1 ml supernatant vs control (0%)
[14] = Table 8, 7,5% FKS, bracketed value = concentration of the single sample
[15] = Table 8, mean ± SE, n = 6-19, runs of 3 days, added day 0 to 2, 7,5% FKS, 1 ml supernatant vs control (0%)
[16] = Table 8, single sample, 7,5% FKS, 1 ml supernatant vs control (0%)

Which “% Steigerung der t-PA-Synthese Durchschnitt” value (CHO-Zellen [1]; [4]) does the source give for O=CO [Ameisensäure, reference compound] here?
Its value is 6,5 ± 0,9%.

What about the “% Steigerung der t-PA-Synthese Maximum” value (CHO-Zellen [1]; [5]) of the same compound?
The value was 7,4%.

And the “optimaler Dosisbereich” value (CHO-Zellen [1]; Table 3, stimulation of t-PA synthesis, medium with 7,5% FKS)?
The value was 100 µM.

What does the source list for O=C1O[C@H]([C@@H](O)CO)C(O)=C1O [Ascorbinsäure]?
Wirkung auf die t-PA-Produktion hält an (CHO-Zellen [2]; duration of effect): 72 h; activation at 10000 µM (CHO-Zellen [2]; application day 0, after 24 h (Abb. 14), read-out: Steigerung der t-PA-Synthese): 15.2%

CCCC(=O)OCC[N+](C)(C)C.[Br-] [BCB, Butyrylcholinbromid] was tested. Which “optimaler Dosisbereich” value (CHO-Zellen [1]; [6]) did it give?
Its value is 5-10 mM (2.5 mM).

What about the “% Steigerung der t-PA-Synthese Durchschnitt” value (CHO-Zellen [1]; [7]) of the same compound?
The value was 29,1 ± 4,4%.

What about the “% Steigerung der t-PA-Synthese Maximum” value (CHO-Zellen [1]; [8]) of the same compound?
Its value is 49,6%.

How did the “optimaler Dosisbereich” value (CHO-Zellen [1]; [6]) turn out when CCCC(=O)OCC[N+](C)(C)C.[Cl-] [BCC, Butyrylcholinchlorid] was run?
Its value is 5-10 mM ( 10 mM).

And the “% Steigerung der t-PA-Synthese Durchschnitt” value (CHO-Zellen [1]; [7])?
The value was 38,8 ± 4,4%.

And the “% Steigerung der t-PA-Synthese Maximum” value (CHO-Zellen [1]; [8])?
The value was 63,9%.

Which results are given for CCCC(=O)O [Buttersäure]?
% Steigerung der t-PA-Synthese Durchschnitt (CHO-Zellen [1]; [4]): 41,9 ± 3,8%; % Steigerung der t-PA-Synthese Maximum (CHO-Zellen [1]; [5]): 68,3%; optimaler Dosisbereich (CHO-Zellen [1]; [9]): 1-5 mM ( 1 mM); Steigerung der t-PA-Produktion (CHO-Zellen [1]; [10]): 33,0 ± 5,4%; Steigerung der t-PA-Produktion (CHO-Zellen [1]; [11]): 40,2 ± 12,2%; Stimulierung der t-PA-Produktion (CHO-Zellen [1]; medium with 7,5% FKS (Abb. 7)): 18,1 ± 5,7%; t-PA-Synthese, bezogen auf 1 x 10⁶ Zellen (CHO-Zellen [3]; serum-free medium (Abb. 13)): > 50 µg/ 1 x 10⁶ Zellen

With CC(=O)C=C(C)CC(C)(C)O [DHO, 6-Hydroxy-4,6-Dimethyl-3-hepten-2-on] as the compound, how does the “t-PA Produktion nach der Behandlung” value (CHO-Zellen [3]; after 144 h) read?
The value was “erhöht”.

For CCCCCc1oc(CCCCCCCCC(=O)O)c(C)c1C [Furanfettsäure], which “% Steigerung der t-Pa-Synthese Durchschnitt” value (CHO-Zellen [1]; [12]) is on record?
The value was 19,0 ± 3,2%.

And the “% Steigerung der t-Pa-Synthese Maximum” value (CHO-Zellen [1]; [13])?
Its value is 32,1%.

Which “optimaler Dosisbereich” value (CHO-Zellen [1]; [14]) does the source give for N[C@@H](CCC(=O)N[C@@H](CS)C(=O)NCC(=O)O)C(=O)O [Glutathion] here?
The value was 1-10 µM (10µM).

What about the “% Steigerung der t-Pa-Synthese Durchschnitt” value (CHO-Zellen [1]; [15]) of the same compound?
The value was 16,0 ± 2,0%.

And the “% Steigerung der t-Pa-Synthese Maximum” value (CHO-Zellen [1]; [16])?
The value was 30,6%.

What about the “effektiver Konzentrationsbereich” value (CHO-Zellen [1]; text b134) of the same compound?
The value was 1 to 10 µM.

For CC(C)C(=O)O [Isobuttersäure], which “% Steigerung der t-PA-Synthese Durchschnitt” value (CHO-Zellen [1]; [4]) is on record?
Its value is 16.6 ± 2,8%.

What about the “% Steigerung der t-PA-Synthese Maximum” value (CHO-Zellen [1]; [5]) of the same compound?
The value was 32,9%.

And the “optimaler Dosisbereich” value (CHO-Zellen [1]; [9])?
The value was 0,6-10 mM (10 mM).

And the “Steigerung der t-PA-Produktion” value (CHO-Zellen [1]; [10])?
The value was 20,1 ± 10,7%.

And the “Steigerung der t-PA-Produktion” value (CHO-Zellen [1]; [11])?
Its value is 25,3 ± 5,1%.

And the Produktionssteigerung erst nach (CHO-Zellen [1]; onset of the increase, medium with 7,5% FKS (Abb. 7))?
Its Produktionssteigerung erst nach is 48 h.

Which “% Steigerung der t-PA-Synthese Durchschnitt” value (CHO-Zellen [1]; [4]) does the source give for CC(C)CC(=O)O [Isovaleriansäure] here?
The value was 18,7 ± 2,4%.

What about the “% Steigerung der t-PA-Synthese Maximum” value (CHO-Zellen [1]; [5]) of the same compound?
The value was 39,3%.

And the “optimaler Dosisbereich” value (CHO-Zellen [1]; [9])?
Its value is 1-20 mM ( 5 mM).

What about the “Steigerung der t-PA-Produktion” value (CHO-Zellen [1]; [10]) of the same compound?
The value was 17,2 ± 1,0%.

And the “Steigerung der t-PA-Produktion” value (CHO-Zellen [1]; [11])?
Its value is 19,4 ± 1,5%.

What about the “Stimulierung der t-PA-Produktion” value (CHO-Zellen [1]; medium with 7,5% FKS (Abb. 7)) of the same compound?
The value was 24,8 ± 0,5%.

What about the “Steigerung der t-PA-Produktion” value (CHO-Zellen [1]; day 4, medium with 7,5% FKS (Abb. 7)) of the same compound?
The value was 8,5%.

How did the “optimaler Dosisbereich” value (CHO-Zellen [1]; [14]) turn out when N[C@@H](CS)C(=O)O [L-Cystein] was run?
Its value is 1-10 mM ( 1mM).

And the “% Steigerung der t-Pa-Synthese Durchschnitt” value (CHO-Zellen [1]; [15])?
The value was 20,9 ± 3,4%.

What about the “% Steigerung der t-Pa-Synthese Maximum” value (CHO-Zellen [1]; [16]) of the same compound?
The value was 41,4%.

What about the “Maximalwert des Steigerungseffektes erreicht nach” value (CHO-Zellen [1]; time to maximal effect (Abb. 15)) of the same compound?
Its value is 48 h.

CC(O)CC1CCC(C(C)C(=O)O)O1 (stereo not drawn) [Nonactinsäure] was tested. Which “% Steigerung der t-Pa-Synthese Durchschnitt” value (CHO-Zellen [1]; [12]) did it give?
The value was 30,3 ± 6,5%.

What about the “% Steigerung der t-Pa-Synthese Maximum” value (CHO-Zellen [1]; [13]) of the same compound?
The value was 58,3%.

Which results are given for O=C(O)CSCC(=O)O [Thiodiglykolsäure]?
% Steigerung der t-Pa-Synthese Durchschnitt (CHO-Zellen [1]): 18,0 ± 3,8%; % Steigerung der t-Pa-Synthese Maximum (CHO-Zellen [1]): 31,0%; optimaler Dosisbereich (CHO-Zellen [1]): 1000 µM

O=C(O)C(O)C(O)C(=O)O (stereo not drawn) [Weinsäure] was tested. Which activation at 10000 µM (CHO-Zellen [2]; read-out: Steigerung der t-PA-Synthese gegenüber der Kontrolle) did it give?
Its activation at 10000 µM is 10.3%.
